Assay results from ChEMBL document CHEMBL1126409, “Synthesis and biological activity of nor- and homo-5,10-dideazatetrahydrofolic acid” (Bioorg Med Chem Lett, 1992).
pKi: −log10 of the molar value. Converted amounts (≈) assume the structure as drawn.

How the values were obtained:
CCRF-CEM = test: The compound was tested for its cytotoxicity against CCRF-CEM human leukemic cells using 72 hrs assay; assay type: functional, cell-based
[1] = target: T1, Trifunctional purine biosynthetic protein adenosine-3 (Mus musculus, UniProt Q64737); test: Inhibitory activity against glycinamide ribonucleotide formyltransferase (GARFT) from L1210 murine leukemic cells; assay type: cell-based
T1 sequence (Q64737 whole entry): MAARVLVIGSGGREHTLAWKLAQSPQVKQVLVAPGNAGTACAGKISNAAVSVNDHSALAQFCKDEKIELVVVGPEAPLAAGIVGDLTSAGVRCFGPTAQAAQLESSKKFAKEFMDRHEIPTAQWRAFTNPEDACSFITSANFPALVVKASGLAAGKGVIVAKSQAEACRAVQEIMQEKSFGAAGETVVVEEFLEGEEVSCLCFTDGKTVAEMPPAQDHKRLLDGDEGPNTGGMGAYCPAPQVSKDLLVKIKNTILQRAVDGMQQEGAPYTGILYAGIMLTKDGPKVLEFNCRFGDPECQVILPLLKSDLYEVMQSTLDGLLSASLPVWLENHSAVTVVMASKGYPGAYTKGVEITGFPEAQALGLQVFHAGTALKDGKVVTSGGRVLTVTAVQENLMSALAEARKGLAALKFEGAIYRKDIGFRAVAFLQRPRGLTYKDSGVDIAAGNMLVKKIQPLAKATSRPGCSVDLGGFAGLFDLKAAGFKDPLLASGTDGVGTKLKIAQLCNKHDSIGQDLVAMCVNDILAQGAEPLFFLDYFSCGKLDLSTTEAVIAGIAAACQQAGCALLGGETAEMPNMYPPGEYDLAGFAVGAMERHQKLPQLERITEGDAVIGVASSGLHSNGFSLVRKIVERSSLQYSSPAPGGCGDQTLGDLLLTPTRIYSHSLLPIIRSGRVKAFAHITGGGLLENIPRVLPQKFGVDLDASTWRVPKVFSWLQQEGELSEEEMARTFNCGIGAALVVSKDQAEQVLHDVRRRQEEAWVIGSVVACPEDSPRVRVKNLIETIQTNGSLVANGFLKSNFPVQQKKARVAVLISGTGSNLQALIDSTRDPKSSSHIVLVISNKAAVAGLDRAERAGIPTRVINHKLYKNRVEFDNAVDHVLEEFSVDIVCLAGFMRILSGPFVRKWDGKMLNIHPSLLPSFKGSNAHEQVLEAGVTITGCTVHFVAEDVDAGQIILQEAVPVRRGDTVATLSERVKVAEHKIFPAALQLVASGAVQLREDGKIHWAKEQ

Structure (SMILES) | IC50 (CCRF-CEM) [ng/mL] | pKi [1]
Nc1nc(O)c2c(n1)NCC(CCCc1ccc(C(=O)N[C@H](CCC(=O)O)C(=O)O)cc1)C2 (stereo not given in full) | 8 (≈ 0.0175 µM) | –
Nc1nc(O)c2c(n1)NCC(Cc1ccc(C(=O)N[C@H](CCC(=O)O)C(=O)O)cc1)C2 (stereo not given in full) | 26 (≈ 0.0605 µM) | 12.20
Nc1nc2c(c(=O)[nH]1)C[C@@H](CCc1ccc(C(=O)N[C@@H](CCC(=O)O)C(=O)O)cc1)CN2 [LOMETREXOL] | 7 (≈ 0.0158 µM) | 6.92
